According to patent US7510825B2, “Kits and methods for detection of apoptotic cells” (NST NeuroSurvival Technologies Ltd, priority 2000, dated 2009):

Assays:
[1] = system: MCF-7 breast carcinoma tumors; assay: Detection by DDC of apoptosis in breast carcinoma after irradiation; assay type: in vivo, mice; conditions: following irradiation (two doses of 8 Gray) vs non irradiated
Protocol: (§1) A. Administration of DDC in-vivo: Injection of 200 μl of DDC intravenously. Following 1-2 hours, animal is sacrificed, and the desired organ is placed in a test tube or on a small plate, suitable for liquid nitrogen freezing. The plate is then covered with an aluminum foil, and transferred to liquid nitrogen. Following 5-30 minutes the specimen is being frozen to −80° C. and kept at −80° C. for at least 16 hr. B. Analysis of the Specimen: • a. Whole organ imaging Ex-vivo whole organ fluorescence imaging may be carried out on freshly excised specimen, that can be analyzed under a stereomicroscope (such as Leica MZ FL III, Leica Switzerland). DDC may be visualized using 360cx and >420cm nm filter set. Emitted fluorescence can be imaged using appropriate camera and software, such as a Leica DC 300F Distal camera and images can be processed and analyzed by Leica QWin Lite software. • b. Histological analysis, from the frozen organ or tissue, 4 μm cryosections are prepared on slides. Analysis of the tissue sections can be performed using a fluorescence microscope with a UV filter characterized by excitation at 360-370 nm (band pass) and emission at 420 nm (barrier filter) In case that staining of the examined tissue is desired, the following procedures can be applied: […]

[2] = system: L5178-S (LY-S) murine lymphoma tumors; assay: Detection by DDC of tumor cell apoptosis in lymphoma-bearing mice after Taxol; assay type: in vivo; conditions: Taxol 20 mg/kg treated vs control animals; DDC i.v. 24 h after Taxol, sacrifice 2 h later
Protocol: as §1

platelets = assay: Selective binding of DDC to activated platelets, flow cytometry; assay type: cell-based; conditions: 10 μM DDC for 5 minutes
Protocol: The selective binding of DDC to activated platelets was determined using flow cytometric (FACS) analysis. Platelet-rich plasma was obtained from healthy volunteers. 10^9 of the fresh platelets were centrifuged (5 minutes, 380×g), washed and re-suspended in Tyrode's buffer (137 mM NaCl; 2.8 mM KCl; 1 mM MgCl2, 12 mM NaHCO3; 0.4 mM Na2HPO4; 5.5 mM D-glucose and 10 mM Hepes pH 7.4; 0.35% BSA). The purified platelets were kept on ice, and served as controls.
For activation, 200 μl of washed platelets were incubated with a mixture of 0.05 units/ml of thrombin and 5 μg/ml collagen for 5 min. at 37°, in the presence of 2 mM CaCl2 in a final volume of 1 ml. Following incubation, the platelets were centrifuged (2 min. at 10^4 rpm) and resuspended in 1 ml of Tyrode's buffer.
Activated and control non-treated platelets were incubated with 10 μM of DDC for 5 minutes at room temperature. […] Excitation was at 360 nm and emission was measured at 530 nm. […] While only a small fraction of the control platelets manifested binding of DDC (3.6% of the population), platelet activation caused 81% of the platelet population to acquire a marked DDC binding, reflected as a distinct shift to higher fluorescence intensity. As shown in tile FACS histogram in FIG. 21B, activation was associated with a major shift of the whole platelet population to higher fluorescence intensity. […]

cardiomyocytes = assay: Focal uptake of DDC in heart following sepsis (CLP); assay type: in vivo, mice; conditions: 24 h after cecal ligature and perforation
Protocol: A. Administration of DDC in-vivo: Injection of 200 μl of DDC intravenously. Following 1-2 hours, animal is sacrificed, and the desired organ is placed in a test tube or on a small plate, suitable for liquid nitrogen freezing. The plate is then covered with an aluminum foil, and transferred to liquid nitrogen. Following 5-30 minutes the specimen is being frozen to −80° C. and kept at −80° C. for at least 16 hr. B. Analysis of the Specimen: • a. Whole organ imaging Ex-vivo whole organ fluorescence imaging may be carried out on freshly excised specimen, that can be analyzed under a stereomicroscope (such as Leica MZ FL III, Leica Switzerland). DDC may be visualized using 360cx and >420cm nm filter set. Emitted fluorescence can be imaged using appropriate camera and software, such as a Leica DC 300F Distal camera and images can be processed and analyzed by Leica QWin Lite software. • b. Histological analysis, from the frozen organ or tissue, 4 μm cryosections are prepared on slides. Analysis of the tissue sections can be performed using a fluorescence microscope with a UV filter characterized by excitation at 360-370 nm (band pass) and emission at 420 nm (barrier filter) In case that staining of the examined tissue is desired, the following procedures can be applied:
The cecum of anesthetized mice was isolated, ligated distal to the ileocaecal valve, and punctured twice with 26-gauge needle. […]

[3] = system: cardiomyocytes of the ischemic heart; assay: Detection by DDC of ischemic damage in the heart following ischemia-reperfusion; assay type: in vivo, mice; conditions: ischemia 40 minutes, reperfusion 90 minutes; DDC at onset of ischemia
Protocol: Ischemia/Reperfusion was induced in male Swiss mice by ligation and subsequent release of a suture around the left anterior descending coronary artery. Ischemia was for 40 minutes followed by reperfusion of 90 minutes. DDC was injected to the Jugular vein at the onset of ischemia. Uptake of DDC was followed at real time in the beating heart using a Laica stereomycroscope. Pictures were taken at the end point of the reperfusion (90 minutes) and collected by Hamamatsu CCD camera. For inhibition by caspase inhibitors, animals were injected with a pan-Caspase inhibitor in two doses of 10 mg/kg given at the time of reperfusion. […] Figures (C) and (D) Cryosections prepared from the heart that was collected at the end point of the experiments DDC fluorescence can be viewed in single apoptotic cardiomyocites. This example support the role of DDC in detecting ischemic cells in the level of a single apoptotic cell.

**Q.** For `CN(C)c1cccc2c(S(=O)(=O)NC(CSSCC(NS(=O)(=O)c3cccc4c(N(C)C)cccc34)C(=O)O)C(=O)O)cccc12` (stereo not drawn) [DDC], which “uptake of DDC into single cells of the tumor” value [1] is on record?
**A.** increased uptake

**Q.** What about the “DDC uptake into tumors” value [2] of the same molecule?
**A.** marked increase of DDC uptake

**Q.** What about the “fraction of platelet population binding DDC” value (platelets; control platelets) of the same molecule?
**A.** 3.6%

**Q.** What about the “fraction of platelet population binding DDC” value (platelets; platelets activated by thrombin and collagen) of the same molecule?
**A.** 81%

**Q.** And the “fluorescence of DDC in cardiomyocytes following sepsis” value (cardiomyocytes)?
**A.** can be seen in single cardiomyocites

**Q.** And the “uptake of DDC in cardiomyocytes” value [3]?
**A.** identified in individual cadiomyocites
